Tests used:
[1] = test system: Respiratory syncytial virus (RSV) strain A2; experiment: Hep-2 RSV2 384-well assay (EC50-HEP2-384); type: cell-based; conditions: human respiratory syncytial virus, HEp-2, 96 h, HEp-2 cells, RSV A2, MOI=4, 4 days, Table 3
SARS-CoV-2 = SARS-CoV-2 antiviral assay (A549-hACE2, Nano luciferase); type: cell-based; conditions: Severe acute respiratory syndrome coronavirus 2, 48 h, A549-hACE2 cells, SARS-CoV2-Nano, MOI 0.025, 48 h; Table 4; read-out: EC50 SARS CoV2

Structure (SMILES): C[C@H](NP(=O)(OC[C@H]1O[C@@](C#N)(c2ccc3c(N)ncnn23)[C@H](O)[C@@H]1O)Oc1ccc(C(C)(C)C)cc1)C(=O)OC1CCC1 (stereo partly drawn) [Example 31, Cyclobutyl ((((2R,3S,4R,5R)-5-(4-aminopyrrolo[2,1-f][1,2,4]triazin-7-yl)-5-cyano-3,4-dihydroxytetrahydrofuran-2-yl)methoxy)(4-(tert-butyl)phenoxy)phosphoryl)-L-alaninate]
- EC50 [1]: 53.2 nM
- EC50 (SARS-CoV-2): 250 nM

Structure (SMILES): CC(=O)O[C@H]1[C@@H](OC(C)=O)[C@](C#N)(c2ccc3c(N)ncnn23)O[C@@H]1CO[P@@](=O)(N[C@@H](C)C(=O)O[C@H]1CCOC1)Oc1ccc(C(C)(C)C)cc1 [Example 37, (2R,3R,4R,5R)-2-(4-aminopyrrolo[2,1-f][1,2,4]triazin-7-yl)-5-((((4-(tert-butyl)phenoxy)(((S)-1-oxo-1-(((S)-tetrahydrofuran-3-yl)oxy)propan-2-yl)amino)phosphoryl)oxy)methyl)-2-cyanotetrahydrofuran-3,4-diyl Diacetate]
- EC50 [1]: 187 nM
- EC50 (SARS-CoV-2): 282 nM

Structure (SMILES): CCOC(=O)[C@H](C)NP(=O)(OC[C@H]1O[C@@](C#N)(c2ccc3c(N)ncnn23)[C@H](OC(=O)C(C)C)[C@@H]1OC(=O)C(C)C)Oc1ccc(C23CC(C2)C3)cc1 (stereo partly drawn) [Example 43, (2R,3R,4R,5R)-2-(4-aminopyrrolo[2,1-f][1,2,4]triazin-7-yl)-5-((((4-(bicyclo[1.1.1]pentan-1-yl)phenoxy)(((S)-1-ethoxy-1-oxopropan-2-yl)amino)phosphoryl)oxy)methyl)-2-cyanotetrahydrofuran-3,4-diyl bis(2-methylpropanoate)]
- EC50 [1]: 62.8 nM
- EC50 (SARS-CoV-2): 168 nM

Structure (SMILES): CC(C)C(=O)O[C@H]1[C@@H](OC(=O)C(C)C)[C@](C#N)(c2ccc3c(N)ncnn23)O[C@@H]1COP(=O)(N[C@@H](C)C(=O)OC1CC(C)(C)C1)Oc1ccc(C(C)(C)C)cc1 (stereo partly drawn) [Example 94, (2R,3R,4R,5R)-2-(4-aminopyrrolo[2,1-f][1,2,4]triazin-7-yl)-5-((((4-(tert-butyl)phenoxy)(((S)-1-(3,3-dimethylcyclobutoxy)-1-oxopropan-2-yl)amino)phosphoryl)oxy)methyl)-2-cyanotetrahydrofuran-3,4-diyl bis(2-methylpropanoate)]
- EC50 [1]: 84.5 nM
- EC50 (SARS-CoV-2): 370 nM

Structure (SMILES): CCC(=O)O[C@H]1[C@@H](OC(=O)CC)[C@](C#N)(c2ccc3c(N)ncnn23)O[C@@H]1COP(=O)(N[C@@H](C)C(=O)OC1CC(C)(C)C1)Oc1ccc(C(C)(C)C)cc1 (stereo partly drawn) [Example 95, (2R,3R,4R,5R)-2-(4-aminopyrrolo[2,1-f][1,2,4]triazin-7-yl)-5-((((4-(tert-butyl)phenoxy)(((S)-1-(3,3-dimethylcyclobutoxy)-1-oxopropan-2-yl)amino)phosphoryl)oxy)methyl)-2-cyanotetrahydrofuran-3,4-diyl Dipropionate]
- EC50 [1]: 61.8 nM
- EC50 (SARS-CoV-2): 264 nM

Structure (SMILES): CC(=O)O[C@H]1[C@@H](OC(C)=O)[C@](C#N)(c2ccc3c(N)ncnn23)O[C@@H]1COP(=O)(N[C@@H](C)C(=O)OC1CC2(CCCC2)C1)Oc1ccc(C(C)(C)C)cc1 (stereo partly drawn) [Example 98a, (2R,3R,4R,5R)-2-(4-aminopyrrolo[2,1-f][1,2,4]triazin-7-yl)-5-((((4-(tert-butyl)phenoxy)(((S)-1-oxo-1-(spiro[3.4]octan-2-yloxy)propan-2-yl)amino)phosphoryl)oxy)methyl)-2-cyanotetrahydrofuran-3,4-diyl Diacetate]
- EC50 [1]: 62.1 nM
- EC50 (SARS-CoV-2): 176 nM

Structure (SMILES): C[C@H](NP(=O)(OC[C@H]1O[C@@](C#N)(c2ccc3c(N)ncnn23)[C@H](O)[C@@H]1O)Oc1ccc(C(C)(C)C)cc1)C(=O)OCC1CC1 (stereo partly drawn) [Example 101a, Cyclopropyl methyl ((((2R,3S,4R,5R)-5-(4-aminopyrrolo[2,1-f][1,2,4]triazin-7-yl)-5-cyano-3,4-dihydroxytetrahydrofuran-2-yl)methoxy)(4-(tert-butyl)phenoxy)phosphoryl)-L-alaninate]
- EC50 [1]: 41.1 nM
- EC50 (SARS-CoV-2): 148 nM

Structure (SMILES): CCC(=O)O[C@H]1[C@@H](OC(=O)CC)[C@](C#N)(c2ccc3c(N)ncnn23)O[C@@H]1COP(=O)(N[C@@H](C)C(=O)OCC1CC1)Oc1ccc(C(C)(C)C)cc1 (stereo partly drawn) [Example 103b, (2R,3R,4R,5R)-2-(4-aminopyrrolo[2,1-f][1,2,4]triazin-7-yl)-5-((((4-(tert-butyl)phenoxy)(((S)-1-(cyclopropylmethoxy)-1-oxopropan-2-yl)amino)phosphoryl)oxy)methyl)-2-cyanotetrahydrofuran-3,4-diyl Dipropionate]
- EC50 [1]: 42 nM
- EC50 (SARS-CoV-2): 363 nM

Structure (SMILES): CCC(=O)O[C@H]1[C@@H](OC(=O)CC)[C@](C#N)(c2ccc3c(N)ncnn23)O[C@@H]1COP(=O)(N[C@@H](C)C(=O)OCCC(C)(C)CC)Oc1ccccc1 (stereo partly drawn) [Example 105a, (2R,3R,4R,5R)-2-(4-aminopyrrolo[2,1-f][1,2,4]triazin-7-yl)-2-cyano-5-((((((S)-1-((3,3-dimethylpentyl)oxy)-1-oxopropan-2-yl)amino)(phenoxy)phosphoryl)oxy)methyl)tetrahydrofuran-3,4-diyl Dipropionate]
- EC50 [1]: 54.6 nM
- EC50 (SARS-CoV-2): 133 nM

Structure (SMILES): CCC(C)(C)CCOC(=O)[C@H](C)NP(=O)(OC[C@H]1O[C@@](C#N)(c2ccc3c(N)ncnn23)[C@H](OC(C)=O)[C@@H]1OC(C)=O)Oc1ccccc1 (stereo partly drawn) [Example 106a, (2R,3R,4R,5R)-2-(4-aminopyrrolo[2,1-f][1,2,4]triazin-7-yl)-2-cyano-5-((((((S)-1-((3,3-dimethylpentyl)oxy)-1-oxopropan-2-yl)amino)(phenoxy)phosphoryl)oxy)methyl)tetrahydrofuran-3,4-diyl Diacetate]
- EC50 [1]: 46.8 nM
- EC50 (SARS-CoV-2): 83.1 nM

Structure (SMILES): CCC(=O)O[C@H]1[C@@H](OC(=O)CC)[C@](C#N)(c2ccc3c(N)ncnn23)O[C@@H]1COP(=O)(N[C@@H](C)C(=O)OCC(C)C)Oc1ccc(C(C)(C)C)cc1 (stereo partly drawn) [Example 138, (2R,3R,4R,5R)-2-(4-aminopyrrolo[2,1-f][1,2,4]triazin-7-yl)-5-((((4-(tert-butyl)phenoxy)(((S)-1-isobutoxy-1-oxopropan-2-yl)amino)phosphoryl)oxy)methyl)-2-cyanotetrahydrofuran-3,4-diyl Dipropionate]
- EC50 [1]: 36.6 nM
- EC50 (SARS-CoV-2): 342 nM

Structure (SMILES): CC(=O)O[C@H]1[C@@H](OC(C)=O)[C@](C#N)(c2ccc3c(N)ncnn23)O[C@@H]1COP(=O)(N[C@@H](C)C(=O)OCC1CCC1)Oc1ccccc1 (stereo partly drawn) [Example 145, (2R,3R,4R,5R)-2-(4-aminopyrrolo[2,1-f][1,2,4]triazin-7-yl)-2-cyano-5-((((((S)-1-(cyclobutylmethoxy)-1-oxopropan-2-yl)amino)(phenoxy)phosphoryl)oxy)methyl)tetrahydrofuran-3,4-diyl Diacetate]
- EC50 [1]: 35 nM
- EC50 (SARS-CoV-2): 101 nM

Structure (SMILES): CCC(C)(C)CCOC(=O)[C@H](C)NP(=O)(OC[C@H]1O[C@@](C#N)(c2ccc3c(N)ncnn23)[C@H](O)[C@@H]1O)Oc1ccc(C(C)(C)C)cc1 (stereo partly drawn) [Example 154, 3,3-dimethylpentyl ((((2R,3S,4R,5R)-5-(4-aminopyrrolo[2,1-f][1,2,4]triazin-7-yl)-5-cyano-3,4-dihydroxytetrahydrofuran-2-yl)methoxy)(4-(tert-butyl)phenoxy)phosphoryl)-L-alaninate]
- EC50 [1]: 105 nM
- EC50 (SARS-CoV-2): 330 nM

Structure (SMILES): C[C@H](NP(=O)(OC[C@H]1O[C@@](C#N)(c2ccc3c(N)ncnn23)[C@H](O)[C@@H]1O)Oc1ccc(C(C)(C)C)cc1)C(=O)OCC1CCCCC1 (stereo partly drawn) [Example 156, Cyclohexylmethyl ((((2R,3S,4R,5R)-5-(4-aminopyrrolo[2,1-f][1,2,4]triazin-7-yl)-5-cyano-3,4-dihydroxytetrahydrofuran-2-yl)methoxy)(4-(tert-butyl)phenoxy)phosphoryl)-L-alaninate]
- EC50 [1]: 195 nM
- EC50 (SARS-CoV-2): 363 nM

Structure (SMILES): CCC(C)(C)CCOC(=O)[C@H](C)NP(=O)(OC[C@H]1O[C@@](C#N)(c2ccc3c(N)ncnn23)[C@H](OC(C)=O)[C@@H]1OC(C)=O)Oc1ccc(C(C)(C)C)cc1 (stereo partly drawn) [Example 159, (2R,3R,4R,5R)-2-(4-aminopyrrolo[2,1-f][1,2,4]triazin-7-yl)-5-((((4-(tert-butyl)phenoxy)(((S)-1-((3,3-dimethylpentyl)oxy)-1-oxopropan-2-yl)amino)phosphoryl)oxy)methyl)-2-cyanotetrahydrofuran-3,4-diyl Diacetate]
- EC50 [1]: 79.3 nM
- EC50 (SARS-CoV-2): 369 nM

Structure (SMILES): CC(=O)O[C@H]1[C@@H](OC(C)=O)[C@](C#N)(c2ccc3c(N)ncnn23)O[C@@H]1COP(=O)(N[C@@H](C)C(=O)OCC1CCCCC1)Oc1ccc(C(C)(C)C)cc1 (stereo partly drawn) [Example 163, (2R,3R,4R,5R)-2-(4-aminopyrrolo[2,1-f][1,2,4]triazin-7-yl)-5-((((4-(tert-butyl)phenoxy)(((S)-1-(cyclohexylmethoxy)-1-oxopropan-2-yl)amino)phosphoryl)oxy)methyl)-2-cyanotetrahydrofuran-3,4-diyl Diacetate]
- EC50 [1]: 68 nM
- EC50 (SARS-CoV-2): 378 nM

Structure (SMILES): C[C@@H](CC(=O)OC1CCC1)NP(=O)(OC[C@H]1O[C@@](C#N)(c2ccc3c(N)ncnn23)[C@H](O)[C@@H]1O)Oc1ccc(C(C)(C)C)cc1 (stereo partly drawn) [Example 165, cyclobutyl (3S)-3-(((((2R,3S,4R,5R)-5-(4-aminopyrrolo[2,1-f][1,2,4]triazin-7-yl)-5-cyano-3,4-dihydroxytetrahydrofuran-2-yl)methoxy)(4-(tert-butyl)phenoxy)phosphoryl)amino)butanoate]
- EC50 [1]: 5000 nM
- EC50 (SARS-CoV-2): 10000 nM

Structure (SMILES): CC(=O)O[C@H]1[C@@H](OC(C)=O)[C@](C#N)(c2ccc3c(N)ncnn23)O[C@@H]1COP(=O)(N[C@@H](C)CC(=O)OC1CCC1)Oc1ccc(C(C)(C)C)cc1 (stereo partly drawn) [Example 166, (2R,3R,4R,5R)-2-(4-aminopyrrolo[2,1-f][1,2,4]triazin-7-yl)-5-((((4-(tert-butyl)phenoxy)(((S)-4-cyclobutoxy-4-oxobutan-2-yl)amino)phosphoryl)oxy)methyl)-2-cyanotetrahydrofuran-3,4-diyl Diacetate]
- EC50 [1]: 5000 nM
- EC50 (SARS-CoV-2): 10000 nM
